Experimental data reported in patent US6897316B2, “Substituted 2-phenyl-4-quinolone-3-carboxylic acid compounds and their use as antitumor agents” (China Medical University, priority 2003, dated 2005).
In brackets after ≈: the same amount, converted by molar mass.

How the values were obtained:
[1] = system: lung cancer cell line (A-549); test: Preliminary cytotoxicity screening against lung cancer cell line A-549 (SRB assay); assay type: cell-based, human; details: for ED50 (cytotoxicity against A-549): 50% reduction in absorbance at 562 nm, Table 2 (tromethamine salts X); for ED50 (cytotoxicity against A-549) / IC50: SRB assay, A-549; for IC50: Homo sapiens, A549, 50% reduction in absorbance at 562 nm relative to untreated cells, Table 1 (esters VII, acids IX), read-out: ED50 (cytotoxicity against A-549)
Protocol: (§1) Compounds were assayed for in vitro cytotoxicity in a panel of human tumor cell lines at the School of Pharmacy, University of North Carolina at Chapel Hill, according to procedures described previously [Lee, K. H., Lin, Y. M., Wu, T. S., Zhang, D. C., Yamagishi, T., Hayashi, T., Hall, I. H., Chang, J. J., Wu, R. Y., Yang, T. H. The cytotoxic principles of Prunella vulgaris, Psychotria serpens, and Hyptis capitata: Ursolic acid and related derivatives. Planta Med. 1988, 54, 308-11; Boyd, M. R. Status of the National Cancer Institute preclinical antitumor drug discovery screen: implications for selection of new agents for clinical trial. Devita, V. T., Jr. Hellman, S., Rosenberg, S. A., Eds, J. B. Cancer: Principles and Practice of Oncology Update, 1989, 3: pp1-12, Lippincoft: Philadephia; Monks, A., Scudiero, D., Skehan, P., Shoemaker, R., Paull, K., Vistica, D., Hose, C., Langley, J., Cronise, P., Vaigro-Wolff, A., Gray-Goodrich, M., Campbell, H., Mayo, J., Boyd, M. Feasibility of a high-flux anticancer drug screen using a diverse panel of cultured human tumor cell lines. J. Natl. Cancer Inst. 1991, 83, 757-66.] The cell lines included human ovarian cancer (1A9), ileocecal carcinoma (HCT-8), lung carcinoma (A-549), glioblastoma (U-87-MG), bone (HOS), epidermoid carcinoma of the naynx (KB), P-gp-expressing epidermoid carcinoma of the nasopharynx (KB-VIN), and melanoma (SKMEL-2) cell line. The cytotoxic effects of each compound were obtained as EC50 values, which represent the molar drug concentrations required to cause 50% inhibition.
Preliminary screening of antitumor activity was based on the cytotoxicity tested in human long cancer (A-549) cell lines. […] Among 3-carboxylic acid derivatives (IX), the cytotoxicity was not remarkable when the m-position of 2-phenyl group was substituted by OCH3 group (IX-3, 7, 11). ED50 values were greater than 20 μg/mL. […] The antitumor activity was not good, if there was no substitution on the m-position of 2-phenyl group ([…]).

bone (HOS) cell line = test: Activity against HTCL replication, HOS; assay type: cell-based, human; details: mean ED50
Protocol: as §1, with “The cell lines included human ovarian cancer (1A9), ileocecal carcinoma (HCT-8), lung carcinoma (A-549), glioblastoma (U-87-MG), bone (HOS), epidermoid carcinoma of the naynx (KB), P-gp-expressing epidermoid carcinoma of the nasopharynx (KB-VIN), and melanoma (SKMEL-2) cell line. The cytotoxic effects of each compound were obtained as EC50 values, which represent the molar drug concentrations required to cause 50% inhibition.” left out

[2] = system: melanoma (SK-MEL-2) cell line; test: Activity against HTCL replication, SK-MEL-2; assay type: cell-based, human; details: mean ED50
Protocol: as §1, with “The cell lines included human ovarian cancer (1A9), ileocecal carcinoma (HCT-8), lung carcinoma (A-549), glioblastoma (U-87-MG), bone (HOS), epidermoid carcinoma of the naynx (KB), P-gp-expressing epidermoid carcinoma of the nasopharynx (KB-VIN), and melanoma (SKMEL-2) cell line. The cytotoxic effects of each compound were obtained as EC50 values, which represent the molar drug concentrations required to cause 50% inhibition.” left out

[3] = system: glioblastoma (U87-MG) cell line; test: Activity against HTCL replication, U87-MG; assay type: cell-based, human; details: mean ED50
Protocol: as §1, with “The cell lines included human ovarian cancer (1A9), ileocecal carcinoma (HCT-8), lung carcinoma (A-549), glioblastoma (U-87-MG), bone (HOS), epidermoid carcinoma of the naynx (KB), P-gp-expressing epidermoid carcinoma of the nasopharynx (KB-VIN), and melanoma (SKMEL-2) cell line. The cytotoxic effects of each compound were obtained as EC50 values, which represent the molar drug concentrations required to cause 50% inhibition.” left out

[4] = system: ileocecal carcinoma (HCT-8) cell line; test: Activity against HTCL replication, HCT-8; assay type: cell-based, human; details: mean ED50
Protocol: as §1, with “The cell lines included human ovarian cancer (1A9), ileocecal carcinoma (HCT-8), lung carcinoma (A-549), glioblastoma (U-87-MG), bone (HOS), epidermoid carcinoma of the naynx (KB), P-gp-expressing epidermoid carcinoma of the nasopharynx (KB-VIN), and melanoma (SKMEL-2) cell line. The cytotoxic effects of each compound were obtained as EC50 values, which represent the molar drug concentrations required to cause 50% inhibition.” left out

[5] = system: human ovarian cancer (IA9) cell line; test: Activity against HTCL replication, IA9; assay type: cell-based; details: ovarian cancer IA9; mean ED50
Protocol: as §1
Antitumor activity of compounds IX-8 and X-8 was further tested on the following 8 cancer cell lines: CAKI, HOS, KB, KB-VIN, SK-MEL-2, U87-MG, HCT-8 and IA9. […] It is worth mentioning that these two compounds were quite active against human ovarian cancer cells (IA9), which were known to have a high level of drug resistant P-glycoprotein. IC50 of compound IX-8 against these cancer cells is only 0.03 μg/mL. Thus, this compound is really worth developing, particular against drug resistant ovarian cancer.

| melting point | Compound | ED50 (cytotoxicity against A-549) [1] [µg/mL] | IC50 [1] [µg/mL] | other results |
| --- | --- | --- | --- | --- |
|  | 6-Methoxy-2-phenyl-4-quinolone-3-carboxylic acid tromethamine salt [Compound X-11] | >20 |  |  |
|  | COc1ccc2[nH]c(-c3cccc(Cl)c3)c(C(=O)O)c(=O)c2c1.NC(CO)(CO)CO [Compound X-9, 3′-Chloro-6-methoxy-2-phenyl-4-quinolone-3-carboxylic acid tromethamine salt] | 17.6 |  |  |
|  | NC(CO)(CO)CO.O=C(O)c1c(-c2cccc(Cl)c2)[nH]c2ccc(Cl)cc2c1=O [Compound X-6, 3′,6-Dichloro-2-phenyl-4-quinolone-3-carboxylic acid tromethamine salt] | >20 |  |  |
|  | CCOC(=O)c1c(-c2cccc(F)c2)[nH]c2ccc(Cl)cc2c1=O [VII-5, Ethyl 3′-fluoro-6-chloro-2-phenyl-4-quinolone-3-carboxylate] |  | > 20 |  |
| 267.5 to 269.2 °C (dec.) | O=C(O)C1C(=O)c2cc3c(cc2N=C1c1ccccc1)OCO3 (centres unmarked) [IX-22, 6,7-Methylenedioxy-2-phenyl-4-quinolone-3-carboxylic acid] |  |  |  |
| 254.2 to 255.6 °C (dec.) | O=C(O)C1C(=O)c2cc(Cl)ccc2N=C1c1ccccc1 (centres unmarked) [IX-15, 6-Chloro-2-phenyl-4-quinolone-3-carboxylic acid] |  |  |  |
|  | NC(CO)(CO)CO.O=C(O)c1c(-c2cccc(F)c2)[nH]c2ccc(Cl)cc2c1=O [Compound X-5, 3′-Fluoro-6-chloro-2-phenyl-4-quinolone-3-carboxylic acid tromethamine salt] | 10.9 |  |  |
| 297 °C | O=C(O)C1C(=O)c2cc(F)ccc2N=C1c1ccccc1 (centres unmarked) [IX-4, 6-Fluoro-2-phenyl-4-quinolone-3-carboxylic acid] |  |  |  |
|  | COc1ccc2[nH]c(-c3cccc(F)c3)c(C(=O)O)c(=O)c2c1.NC(CO)(CO)CO [Compound X-8, 3′-Fluoro-6-methoxy-2-phenyl-4-quinolone-3-carboxylic acid tromethamine salt] | 2.4 |  | ED50 HOS (bone (HOS) cell line): 5.0 µg/mL; ED50 SK-MEL-2 [2]: 2.0 µg/mL; ED50 U87-MG [3]: 5.0 µg/mL; ED50 HCT-8 [4]: 1.20 µg/mL; ED50 IA9 [5]: 0.88 µg/mL |
| > 300 °C | COc1cccc(-c2[nH]c3ccc(OC)cc3c(=O)c2C(=O)O)c1 [IX-10, 3′,6-Dimethoxy-2-phenyl-4-quinolone-3-carboxylic acid] |  | > 20 |  |
| 231 °C | COc1cccc(-c2[nH]c3ccc(F)cc3c(=O)c2C(=O)O)c1 [IX-3, 6-Fluoro-3′-methoxy-2-phenyl-4-quinolone-3-carboxylic acid] |  | > 20 |  |
| > 300 °C | O=C(O)c1c(-c2cccc(F)c2)[nH]c2ccc(Cl)cc2c1=O [IX-5, 3′-Fluoro-6-chloro-2-phenyl-4-quinolone-3-carboxylic acid] |  | 1.8 (≈ 5.67 µM) |  |
| 272 °C (dec.) | O=C(O)c1c(-c2cccc(F)c2)[nH]c2ccc(F)cc2c1=O [IX-2, 3′,6-Difluoro-2-phenyl-4-quinolone-3-carboxylic acid] |  | 0.5 (≈ 1.66 µM) |  |
| 243 °C (dec.) | COc1cccc(-c2[nH]c3ccc(Cl)cc3c(=O)c2C(=O)O)c1 [IX-7, 3′-Methoxy-6-chloro-2-phenyl-4-quinolone-3-carboxylic acid] |  | > 20 |  |
|  | CCOC(=O)c1c(-c2cccc(Cl)c2)[nH]c2ccc(OC)cc2c1=O [VII-9, Ethyl 3′-chloro-6-methoxy-2-phenyl-4-quinolone-3-carboxylate] |  | > 20 |  |
|  | NC(CO)(CO)CO.O=C(O)c1c(-c2cccc(Cl)c2)[nH]c2ccc(F)cc2c1=O [Compound X-1, 3′-Chloro-6-fluoro-2-phenyl-4-quinolone-3-carboxylic acid tromethamine salt] | 17.6 |  |  |
| > 300 °C | COc1ccc2c(c1)C(=O)C(C(=O)O)C(c1ccccc1)=N2 (centres unmarked) [IX-11, 6-Methoxy-2-phenyl-4-quinolone-3-carboxylic acid] |  | > 20 | cytotoxicity / antitumor activity in words ([1]; A-549, preliminary screening): not good |
|  | NC(CO)(CO)CO.O=C(O)c1c(-c2cccc(F)c2)[nH]c2ccc(F)cc2c1=O [Compound X-2, 3′,6-Difluoro-2-phenyl-4-quinolone-3-carboxylic acid tromethamine salt] | 4.3 |  |  |
| 260 °C (dec.) | O=C(O)c1c(-c2cccc(Cl)c2)[nH]c2ccc(Cl)cc2c1=O [IX-6, 3′,6-Dichloro-2-phenyl-4-quinolone-3-carboxylic acid] |  | > 20 |  |
|  | COc1cccc(-c2[nH]c3ccc(Cl)cc3c(=O)c2C(=O)O)c1.NC(CO)(CO)CO [Compound X-7, 3′-Methoxy-6-chloro-2-phenyl-4-quinolone-3-carboxylic acid tromethamine salt] | >20 |  |  |
| 223 °C (dec.) | COc1ccc2[nH]c(-c3cccc(Cl)c3)c(C(=O)O)c(=O)c2c1 [IX-9, 3′-Chloro-6-methoxy-2-phenyl-4-quinolone-3-carboxylic acid] |  | 20 (≈ 60.7 µM) |  |
|  | CCOC(=O)c1c(-c2cccc(OC)c2)[nH]c2ccc(Cl)cc2c1=O [VII-7, Ethyl 3′-methoxy-6-chloro-2-phenyl-4-quinolone-3-carboxylate] |  | > 20 |  |
|  | CCOC(=O)c1c(-c2cccc(OC)c2)[nH]c2ccc(OC)cc2c1=O [VII-10, Ethyl 3′,6-dimethoxy-2-phenyl-4-quinolone-3-carboxylate] |  | > 20 |  |
|  | O=C(O)c1c(-c2cccc(Cl)c2)[nH]c2ccc(F)cc2c1=O [IX-1, 3′-Chloro-6-fluoro-2-phenyl-4-quinolone-3-carboxylic acid] |  | 20 (≈ 63 µM) |  |
